One data set has as its system Mouse ES cells. The data set can be described thus: Mouse ES cell self-renewal culture. Format: cell-based. To be noted: for toxicity to ES cells: GSK-3 inhibitor alone in ES cell culture; for ES cell propagation: single inhibitor in N2B27 medium containing LIF without BMP4; for Oct4/Sox1 marker status: single inhibitor in N2B27 medium without added LIF. On the procedure: Mouse ES cells were cultured in the presence of an inhibitor of the FGF receptor and a MEK inhibitor. […] Undifferentiated cultures can be continuously passaged in these conditions while retaining expression of the pluripotency markers Oct4, Nanog, and Rex1.
However, these cells invariably differentiate and/or die after passaging. To reduce potential toxic side effects we used 2.5 fold lower doses and combined the two inhibitors together. […] Viability is lower and population doubling time slower in this two inhibitor (2i) condition than in the presence of ILIF, but differentiation is effectively restrained.
We reasoned that reduced growth of ES cells in 2i media could be due to increased activity of glycogen synthase kinase 3 (GSK-3) consequent to release of inhibitory phosphorylation by Rsk downstream of pErk. […] In serum-free N2B27 medium the differentiation response is reduced and some colonies appear morphologically Undifferentiated for several days.
However, when CHIR99021 is combined with 2i the differentiation response is lost entirely. Furthermore, CHIR99021 modulated the response to 2i such that ES cells grew as compact three dimensional colonies rather than flattened monolayers typically seen in LIF plus serum/BMP or in 2i. Differentiation was negligible in the three inhibitors (3i) and ES cells propagated rapidly. Most importantly undifferentiated colonies grew up at high efficiency after passaging (data not shown).

A further data set concerns Nanog. The data set can be described thus: Nanog levels and Nanog dependence of self-renewal in ES cells. The data set is classed as cell-based. To be noted: data not shown. An excerpt: In fact, these cells differentiated.
Data set [1] relates to RH ES cells fused to Neural Stem cells (NS TGFP). The data set can be described thus: ES-NS cell fusion, pluripotent hybrid colony formation (reprogramming). The data set is classed as cell-based. On the procedure: (FIGS. 1A-1C)—FACS analysis for red and green fluorescence of RH×NS TGFP fusions. (FIG. 1A) Fusion mixture 24 hours after PEG treatment; (FIG. 1B) Purity check of FACS sorted hybrids gated in A. (FIG. 1C) Hybrids sorted in A were plated and the formed colonies were scored as percentage of colonies per plated hybrid. These scores take into account the purity of the FACS sorted cells. (FIG. 1D) Summary of data. (FIG. 1E) Examples of hybrid colony morphology.
RH ES cells, which express constitutively the dsRed fluorescent protein and hygromycin resistance, were fused to foetal derived Neural Stem cells (NS TGFP) that express the fusion protein TauGFP linked via an IRES to puromycin resistance. […] In the control no PD184352 was added. Treated and untreated primary hybrids were sorted 24 hours after fusion and then plated (FIG. 1A-C). Hygromycin and puromycin selection were added to the ES medium 3 days later. […] This effect is likely to be mediated by the increased levels of Nanog in treated RH cells. Accordingly, if Nanog is endogenously expressed then the MEK inhibitor can be used to upregulate Nanog and achieve associated effects, such as increased reprogramming.

The test system of another data set is FGF receptor. The data set is described as follows: Substitution of FGFR antagonist in culture medium. The data set is classed as cell-based. To be noted: substituting for SU5402.
In a further data set the test system is Human ES cells. The data set can be described thus: Human ES cell culture. The data set is classed as cell-based. The conditions noted are these: media supplemented with CHIR99021 and PD184352; data not shown.
Data set [2] concerns cyclin-dependent kinases (CDKs). The conditions noted are these: at concentrations that completely block GSK-3 activity; cited from earlier work.

Procedure for FGF receptor: Suitable concentrations of SU5402 are in the micromolar range, such as from 0.1-20 μM. Some embodiments use concentrations in the range 0.5-10 μM, especially in the range 1-5 μM.

Turning to `Cn1cc(C2=C(c3ccc(Cl)cc3Cl)C(=O)NC2=O)c2ccccc21` [SB216763], the “toxicity to ES cells” value with Mouse ES cells is on record as “somewhat toxic”.

Take `O=C(NOCC1CC1)c1ccc(F)c(F)c1Nc1ccc(I)cc1Cl` [PD184352]: in the data set with Mouse ES cells, the ES cell propagation result was “sufficient for robust ES cell propagation”; the Oct4/Sox1 marker status entry was “remain Oct4 positive and Sox1 negative for several days”. The “ES cell self-renewal in Nanog −/− ES cells” value in the data set on Nanog (Nanog −/− ES cells) is “failed to show enhancing of ES cell self-renewal”. Besides, the “levels of Nanog in ES cells” value with Nanog was “increases the levels of Nanog”. In data set [1] (PD184352 treated RH cells (3 μM)), the “percentage of hybrid colonies formed per plated hybrid” value worked out at 2.25%. In addition, the “enhancement of ES-NS hybrid colony formation” value in data set [1] (RH cells treated 3 days prior and after fusion with 3 μM PD184352, vs untreated control) came to 45 fold.

Take `CCN(CC)CCCCNc1ncc2cc(-c3cc(OC)cc(OC)c3)c(NC(=O)NC(C)(C)C)nc2n1` [PD173074]: the “fully effective concentration relative to SU5402 (fold lower)” value in the data set with FGF receptor is on record as “about 100 fold”.

With `Cc1c[nH]c(/C=C2\C(=O)Nc3ccccc32)c1CCC(=O)O` [SU5402], in the data set with Mouse ES cells, the ES cell propagation result is “sufficient for robust ES cell propagation”; the Oct4/Sox1 marker status result is “remain Oct4 positive and Sox1 negative for several days”.

Consider `O=C1NC(=O)C(c2ccccc2[N+](=O)[O-])=C1Nc1ccc(O)c(Cl)c1` [SB415286], for which the “toxicity to ES cells” value with Mouse ES cells is on record as “somewhat toxic”.

Turning to “LIF: Leukaemia Inhibitory Factor, gp130 receptor binding cytokine”, the “propagation of cells on addition of LIF” value is reported as “further improved propagation” in the data set with Mouse ES cells (media supplemented with CHIR99021 and PD184352, data not shown); “further improved propagation” in the data set with Human ES cells.

Take `Cc1c[nH]c(-c2cnc(NCCNc3ccc(C#N)cn3)nc2-c2ccc(Cl)cc2Cl)n1` [CHIR99021]: the differentiation response entry with Mouse ES cells (3 μM, in the presence of serum, even with LIF) is listed as “promotes differentiation”. Further, in the data set on Mouse ES cells (serum-free N2B27 medium, GSK-3 inhibitor alone), the “persistence of undifferentiated cells after passaging” value is on record as “Undifferentiated cells do not persist after passaging”. Moreover, the “cross reaction with CDKs” value in data set [2] is on record as “does not cross react”.

The record behind these values is patent US9074180B2, “Culture medium containing kinase inhibitors, and uses thereof” (THE UNIVERSITY COURT OF THE UNIVERSITY OF EDINBURGH, priority 2006, dated 2015).
